From patent US20260042755A1, “GPR6 INVERSE AGONISTS” (MapLight Therapeutics, Inc., priority 2022, published 2026)

What was measured:
GPR6 = target: T1, GPR6 (Homo sapiens, UniProt P46095); assay: GPR6 antagonist functional cAMP assay (LANCE Ultra cAMP TR-FRET, CHO cells stably expressing GPR6); assay type: cell-based; conditions: procedure as described in Example 24
T1 construct: expressed in transfected cells; host or cells: CHO cells
Method in brief: (§1)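 10,000 cells/well; KRB buffer + 0.1% BSA + 150 μM Ro 20-1724; cpd 45 min, 37 °C, 0.1% DMSO; TR-FRET cAMP, 665 nm; 4-PL fit, normalized to DMSO (0.1%) and reference (100%) → IC50.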

GPR3 = target: T2, GPR3 (Homo sapiens, UniProt P46089); assay: GPR3 antagonist functional cAMP assay (LANCE Ultra cAMP TR-FRET, CHO cells stably expressing GPR3); assay type: cell-based; conditions: procedure as described in Example 24
T2 construct: expressed in transfected cells; host or cells: CHO cells
T2 sequence (P46089 whole entry, species assumed): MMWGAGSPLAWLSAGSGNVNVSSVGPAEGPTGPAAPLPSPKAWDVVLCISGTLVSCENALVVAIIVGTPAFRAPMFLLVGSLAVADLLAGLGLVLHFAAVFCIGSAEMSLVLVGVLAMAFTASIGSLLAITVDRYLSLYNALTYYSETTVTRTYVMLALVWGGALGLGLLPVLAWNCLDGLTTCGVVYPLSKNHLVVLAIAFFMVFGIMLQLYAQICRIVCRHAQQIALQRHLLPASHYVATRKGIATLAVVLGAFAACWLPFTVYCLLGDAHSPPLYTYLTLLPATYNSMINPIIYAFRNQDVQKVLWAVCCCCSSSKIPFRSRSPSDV
Method in brief: as §1

T1 sequence (P46095 whole entry): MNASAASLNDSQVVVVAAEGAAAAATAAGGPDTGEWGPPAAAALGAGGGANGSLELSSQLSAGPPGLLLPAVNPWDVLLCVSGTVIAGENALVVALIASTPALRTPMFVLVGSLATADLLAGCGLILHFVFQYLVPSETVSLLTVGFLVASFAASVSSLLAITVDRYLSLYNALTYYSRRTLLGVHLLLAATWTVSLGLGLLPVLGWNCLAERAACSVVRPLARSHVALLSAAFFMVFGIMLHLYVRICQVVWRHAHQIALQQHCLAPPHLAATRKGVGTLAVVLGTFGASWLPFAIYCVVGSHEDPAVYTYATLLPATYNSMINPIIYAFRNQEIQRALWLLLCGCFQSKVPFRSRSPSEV

SMILES	IC50 (GPR6) [nM]	IC50 (GPR3) [nM]
CC(=O)N1CCc2nc(N3CCC(Oc4ccc(F)cc4F)CC3)c(-c3ccc(=O)n(C)c3)nc2C1 [Compound 21, 5-{6-acetyl-2-[4-(2,4-difluorophenoxy)piperidin-1-yl]-5H,6H,7H,8H-pyrido[3,4-b]pyrazin-3-yl}-1-methyl-1,2-dihydropyridin-2-one]	1000 to 30000	1000 to 30000
CS(=O)(=O)c1ccc(CN2CCN(c3nc4ccncc4nc3-c3cn[nH]c3)CC2)c(F)c1 [Compound 22, 1-[(2-fluoro-4-methanesulfonylphenyl)methyl]-4-[3-(1H-pyrazol-4-yl)pyrido[3,4-b]pyrazin-2-yl]piperazine]	≥ 30000	100 to 1000
CC(=O)N1CCc2nc(N3CCC(Oc4ccc(F)cc4F)CC3)c(-c3cccc(OC(C)(C)C)n3)nc2C1 [Compound 23, 1-{3-[6-(tert-butoxy)pyridin-2-yl]-2-[4-(2,4-difluorophenoxy)piperidin-1-yl]-5H,6H,7H,8H-pyrido[3,4-b]pyrazin-6-yl}ethan-1-one]	1000 to 30000	100 to 1000
CC(=O)N1CCc2nc(N3CCC(Oc4ccc(F)cc4F)CC3)c(-c3cnc4n3CCNC4)nc2C1 [Compound 24, 1-(2-(4-(2,4-difluorophenoxy)piperidin-1-yl)-3-(5,6,7,8-tetrahydroimidazo[1,2-a]pyrazin-3-yl)-7,8-dihydropyrido[3,4-b]pyrazin-6(5H)-yl)ethan-1-one]	1000 to 30000	100 to 1000
CNC(=O)Cn1cc(-c2nc3c(nc2N2CCC(Oc4ccc(F)cc4F)CC2)CCN(C(C)=O)C3)cn1 [Compound 25, 2-(4-{6-acetyl-2-[4-(2,4-difluorophenoxy)piperidin-1-yl]-5H,6H,7H,8H-pyrido[3,4-b]pyrazin-3-yl}-1H-pyrazol-1-yl)-N-methylacetamide]	1000 to 30000	1000 to 30000
Fc1ccc(OC2CC3(C2)CN(c2nc4ccncc4nc2-c2cn[nH]c2)C3)c(F)c1 [Compound 26, 2-(6-(2,4-difluorophenoxy)-2-azaspiro[3.3]heptan-2-yl)-3-(1H-pyrazol-4-yl)pyrido[3,4-b]pyrazine]	1000 to 30000	100 to 1000
N#Cc1ccc2nc(N3CCN(Cc4cc(Cl)ccc4Cl)CC3)c(-c3ncc[nH]3)nc2c1 [Compound 27, 2-{4-[(2,5-dichlorophenyl)methyl]piperazin-1-yl}-3-(1H-imidazol-2-yl)quinoxaline-6-carbonitrile]	1000 to 30000	100 to 1000
COCn1ccnc1-c1nc2ccncc2nc1N1CCN(Cc2ccc(F)cc2Cl)CC1 [Compound 28, 1-[(2-chloro-4-fluorophenyl)methyl]-4-{2-[1-(methoxymethyl)-1H-imidazol-2-yl]pyrido[3,4-b]pyrazin-3-yl}piperazine]	≥ 30000	100 to 1000
COc1cccc(-c2nc3cnccc3nc2N2CCN(Cc3ccc(S(C)(=O)=O)cc3F)CC2)n1 [Compound 29, 1-[(2-fluoro-4-methanesulfonylphenyl)methyl]-4-[3-(6-methoxypyridin-2-yl)pyrido[3,4-b]pyrazin-2-yl]piperazine]	1000 to 30000	100 to 1000
CC(=O)N1CCc2nc(N3CCC(Oc4ccc(F)cc4F)CC3)c(-c3cccc(OC4CCC4)n3)nc2C1 [Compound 30, 1-[3-(6-cyclobutoxypyridin-2-yl)-2-[4-(2,4-difluorophenoxy)piperidin-1-yl]-5H,6H,7H,8H-pyrido[3,4-b]pyrazin-6-yl]ethan-1-one]	1000 to 30000	1000 to 30000
CC(=O)N1CCc2nc(N3CCC(Oc4ccc(F)cc4F)CC3)c(-c3cn[nH]c3C(C)C)nc2C1 [Compound 31, 1-{2-[4-(2,4-difluorophenoxy)piperidin-1-yl]-3-[5-(propan-2-yl)-1H-pyrazol-4-yl]-5H,6H,7H,8H-pyrido[3,4-b]pyrazin-6-yl}ethan-1-one]	1000 to 30000	1000 to 30000
CC(=O)N1CCc2nc(N3CCC(Oc4ccc(F)cc4F)CC3)c(-c3cn[nH]c3)nc2C1 [Compound 32, 1-(2-(4-(2,4-difluorophenoxy)piperidin-1-yl)-3-(1H-pyrazol-4-yl)-7,8-dihydropyrido[3,4-b]pyrazin-6(5H)-yl)ethan-1-one]	100 to 1000	1000 to 30000
